Consider nine compounds from patent publication US8329645B2, “Polymyxin derivatives and uses thereof” (priority 2008, dated 2012).

For assay [1], the system named is K. pneumoniae ATCC13883. The settings on record: K. pneumoniae ATCC13883. As for the experimental part: (§1) MICs were determined by using E-strips (Biodisk Ltd., Solna, Sweden) according to the manufacturer's instructions.
(§2) The strains originated from ATCC (11 strains), CCUG (11 strains), and NCTC (The National Collection of Type Cultures, Colindale, U.K.; 2 strains). Eight strains (the F-strains) were purchased from Mobidiag Ltd., Helsinki, Finland.

For assay [2], the system named is E. coli ATCC25922. The settings on record: E. coli ATCC25922. As to the method:
as §1, §2

Assay [3] has as its system E. cloacae ATCC23355. Nature of the assay: E-test MIC with or without NAB7061 (4 μg/ml), Mueller-Hinton agar. It is filed as cell-based, Enterobacter cloacae. As for the experimental part:
as §1, §2

Assay [4] concerns E. coli IH3080. The description is as above. It is filed as cell-based, Escherichia coli. As to the method:
as §1, §2

Assay [5] relates to Pseudomonas aeruginosa ATCC 27853. Nature of the assay: Growth inhibition around wells on LB agar plates. The settings on record: Ps. aeruginosa ATCC 27853. The class given is cell-based. As to the method: (§3) From an overnight-grown culture of IH3080 on LB agar, a suspension of approx. 10^8 cells/ml was prepared in 0.9% NaCl. Aliquots of this suspension were then pipetted on the agar plates and the plates were gently shaken to spread the suspension evenly on the entire surface of the plate. Thereafter, the unabsorbed part of the suspension was removed by using a Pasteur pipette. After the surface had dried, small wells (diameter, 2 mm) were drilled on the plates (five wells per plate) by using a sterile sharp-edged narrow metal tube, single-use pipette tip, and vacuum suction. An alternative method used a swab to spread the inoculum. Samples (4 μl and 10 μl) of the peptide solution in 0.9% NaCl (at concentrations of 1 μg/ml and 0.1 μg/ml) were then pipetted to the wells and the sample fluids were allowed to absorb. Controls included 0.9% NaCl solution without the compound to be tested. The plates were then incubated for 18 h at 37° C. whereafter the diameters of growth inhibition zones around each well were measured; the diameter of the well itself was not reduced. Finally, the diameters were converted to surface areas of growth inhibition (in square mm).
(§4) Direct antibacterial activity of sixteen NAB compounds against Acinetobacter baumannii ATCC 19606 and Pseudomonas aeruginosa ATCC 27853 was tested by using the susceptibility determination method described in Example 2. Five compounds (NAB7062, NAB734, NAB737, NAB739, and NAB740) had very notable activity against A. baumannii. […] The antibacterial activity of NAB739 and NAB740 were as strong as or even stronger than that of polymyxin B.

For assay [6], the system named is A. baumannii ATCC 19606. The experiment in a line: Sensitization to rifampin: growth inhibition around wells on LB plates containing rifampin. It is filed as cell-based, Acinetobacter baumannii. As to conditions: 4 μg.
Assay [7] concerns E. coli IH3080. The experiment in a line: Growth inhibition around wells on LB agar plates. The class given is cell-based, Escherichia coli. As for the experimental part: Peptides synthesized in Example 1, all carrying at least two (2) but not more than three (3) positive charges, were studied for their ability to inhibit the growth of E. coli. This was tested employing LB agar (LB Agar Lennox, Difco, BD, Sparks, Md., U.S.A) plates. The indicator organism E. coli IH3080 (K1:O018) was an encapsulated strain originally isolated from a neonate suffering from meningitis (Vaara et al. 1984) and obtained from National Public Health Institute, Helsinki, Finland.
as §3, with “Samples (4 μl and 10 μl) of the peptide solution in 0.9% NaCl (at concentrations of 1 μg/ml and 0.1 μg/ml) were then pipetted to the wells and the sample fluids were allowed to absorb.” left out

Assay [8] deals with Acinetobacter baumannii ATCC 19606. Nature of the assay: Growth inhibition around wells on LB agar plates. As to conditions: A. baumannii ATCC 19606. It is filed as cell-based. As to the method:
as §3, with “Samples (4 μl and 10 μl) of the peptide solution in 0.9% NaCl (at concentrations of 1 μg/ml and 0.1 μg/ml) were then pipetted to the wells and the sample fluids were allowed to absorb.” left out
as §4

Assay [9] relates to E. coli IH3080. Nature of the assay: Sensitization to rifampin: growth inhibition around wells on LB plates containing rifampin. The class given is cell-based, Escherichia coli. The settings on record: 4 μg of compound. As to the method:
as §3

Assay [10] deals with Ps. aeruginosa ATCC 27853. Described as above. The class given is cell-based, Pseudomonas aeruginosa. As to conditions: 4 μg.

With `CC(=O)NC[C@H]1CN(c2ccc(N3CCOCC3)c(F)c2)C(=O)O1` [Linezolid], the “Sensitization factor to antibiotic (MIC without / with 4 μg/ml of NAB 7061)” value in assay [1] is on record as greater than 4; in assay [2], greater than 11; in [3], greater than 8; in assay [4], greater than 8.
As to `COc1cc(Cc2cnc(N)nc2N)cc(OC)c1OC` [Trimetoprim], the “Sensitization factor to antibiotic (MIC without / with 4 μg/ml of NAB 7061)” value in [1] was 2; in assay [2], 4; in assay [3], 3; in [4], 3.
In the case of `COc1c(N2C[C@@H]3CCCN[C@@H]3C2)c(F)cc2c(=O)c(C(=O)O)cn(C3CC3)c12` [Moxifloxacin], the “Sensitization factor to antibiotic (MIC without / with 4 μg/ml of NAB 7061)” value in assay [3] is listed as 4.
Turning to “OA-Thr-Ser-cy[Dab-Dab-DPhe-Leu-Dab-Dab-Thr-] [NAB 743]”, the “growth inhibition around a well” value in assay [5] (4 μg) was 28 square millimeters; in [5] (10 μg) it was 38 square millimeters; in [7] (4 μg of compound per well) it was 38 square millimeters; in assay [7] (10 μg of compound per well), 79 square millimeters; in assay [8] (4 μg), 0 square millimeters; in [8] (10 μg) it was 0 square millimeters. Moreover, the “growth inhibition around a well in the presence of rifampin” value in assay [6] (rifampin 0 μg/ml) was 0 square millimeters; in assay [6] (rifampin 0.1 μg/ml), 38 square millimeters; in [6] (rifampin 0.3 μg/ml), 227 square millimeters; in assay [9] (rifampin 0 μg/ml), 38 square millimeters; in assay [9] (rifampin 0.1 μg/ml) it was 133 square millimeters; in [9] (rifampin 1.0 μg/ml) it was 227 square millimeters. For the same compound, the “growth inhibition around a well in the presence of rifampin” value in assay [10] (rifampin 0 μg/ml), in assay [10] (rifampin 0.1 μg/ml) and in [10] (rifampin 0.3 μg/ml) was 28 square millimeters each time.
“Polymyxin B nonapeptide [reference compound]”: the “growth inhibition around a well” value in [5] (4 μg) worked out at 113 square millimeters; in [5] (10 μg), 177 square millimeters; in assay [7] (4 μg of compound per well) it was 0 square millimeters; in assay [7] (10 μg of compound per well), 0 square millimeters; in [8] (4 μg), 0 square millimeters; in assay [8] (10 μg), 0 square millimeters. The “growth inhibition around a well in the presence of rifampin” value was determined as 0 square millimeters in assay [6] (rifampin 0 μg/ml); 133 square millimeters in assay [6] (rifampin 0.1 μg/ml); 154 square millimeters in [6] (rifampin 0.3 μg/ml); 0 square millimeters in assay [9] (rifampin 0 μg/ml); 20 square millimeters in assay [9] (rifampin 0.1 μg/ml); 113 square millimeters in assay [9] (rifampin 1.0 μg/ml). Further, the “growth inhibition around a well in the presence of rifampin” value in [10] (rifampin 0 μg/ml) came out at 113 square millimeters; in assay [10] (rifampin 0.1 μg/ml), 113 square millimeters; in assay [10] (rifampin 0.3 μg/ml), 154 square millimeters.
As to “OA-Thr-Dab-cy[Dab-Dab-DPhe-Leu-Abu-Dab-Thr-] [NAB 716]”, the “growth inhibition around a well” value in assay [5] (4 μg) is listed as 0 square millimeters; in assay [5] (10 μg), 0 square millimeters; in assay [7] (10 μg of compound per well) it was 64 square millimeters; in assay [8] (4 μg) it was 0 square millimeters; in assay [8] (10 μg), 0 square millimeters. Moreover, the “growth inhibition around a well in the presence of rifampin” value in [6] (rifampin 0 μg/ml) came out at 0 square millimeters; in [6] (rifampin 0.1 μg/ml) it was 0 square millimeters; in [6] (rifampin 0.3 μg/ml), 64 square millimeters; in [9] (rifampin 0 μg/ml), 13 square millimeters; in assay [9] (rifampin 0.1 μg/ml), 133 square millimeters; in assay [9] (rifampin 1.0 μg/ml), 165 square millimeters. For the same compound, the “growth inhibition around a well in the presence of rifampin” value in assay [10] (rifampin 0 μg/ml), in [10] (rifampin 0.1 μg/ml) and in [10] (rifampin 0.3 μg/ml) was 0 square millimeters in each case.
On to “OA-Thr-DAla-cy[Dab-Dab-DPhe-Thr-Dab-Dab-Thr-] [NAB 738]”, for which the “growth inhibition around a well” value in assay [5] (4 μg) amounted to 0 square millimeters; in [5] (10 μg), 0 square millimeters; in [7] (4 μg of compound per well) it was 0 square millimeters; in assay [7] (10 μg of compound per well) it was 64 square millimeters; in assay [8] (4 μg), 0 square millimeters; in [8] (10 μg), 0 square millimeters. Also, the “growth inhibition around a well in the presence of rifampin” value in [6] (rifampin 0 μg/ml) is 0 square millimeters; in [6] (rifampin 0.1 μg/ml), 95 square millimeters; in [6] (rifampin 0.3 μg/ml), 154 square millimeters; in assay [9] (rifampin 0 μg/ml), 0 square millimeters; in [9] (rifampin 0.1 μg/ml), 133 square millimeters; in assay [9] (rifampin 1.0 μg/ml), 177 square millimeters. Besides, the “growth inhibition around a well in the presence of rifampin” value in assay [10] (rifampin 0 μg/ml) came to 0 square millimeters; in assay [10] (rifampin 0.3 μg/ml), 13 square millimeters.
“OA-Thr-Dab-cy[Dab-Dab-DPhe-Leu-Dab-Abu-Thr-] [NAB 717]”: the “growth inhibition around a well” value in [5] (4 μg), in [5] (10 μg), in assay [7] (4 μg of compound per well), in [7] (10 μg of compound per well), in assay [8] (4 μg) and in [8] (10 μg) was 0 square millimeters each time. The “growth inhibition around a well in the presence of rifampin” value in assay [6] (rifampin 0 μg/ml) came to 0 square millimeters; in [6] (rifampin 0.1 μg/ml), 0 square millimeters; in assay [6] (rifampin 0.3 μg/ml), 50 square millimeters; in [9] (rifampin 0 μg/ml) it was 0 square millimeters; in assay [9] (rifampin 0.1 μg/ml) it was 71 square millimeters; in assay [9] (rifampin 1.0 μg/ml), 95 square millimeters. Further, the “growth inhibition around a well in the presence of rifampin” value in assay [10] (rifampin 0 μg/ml), in assay [10] (rifampin 0.1 μg/ml) and in assay [10] (rifampin 0.3 μg/ml) was 0 square millimeters throughout.
Take “quinupristin-dalfopristin [Quinupristin-dalfopr.]”: the “Sensitization factor to antibiotic (MIC without / with 4 μg/ml of NAB 7061)” value in [1] is on record as 1; in assay [2], greater than 21; in assay [3] it was greater than 5; in assay [4], greater than 21.
